Laboratory results reported in ChEMBL document CHEMBL5113414, “New TRPM8 blockers exert anticancer activity over castration-resistant prostate cancer models” (Eur J Med Chem, 2022).
pIC50: −log10 of the molar value. Calls of active or inactive are those of the source. No cut-off for these calls is given here.

Tests used:
[1] = molecular target: T1, Transient receptor potential cation channel subfamily M member 8 (Rattus norvegicus, UniProt Q8R455); experiment: Antagonist activity at rat TRPM8 channel transfected in HEK293 cells assessed as inhibition of calcium currents by Fluo-4 NW dye based fluorimetric assay; assay type: cell-based
LNCaP C4-2B [2] = experiment: Inhibition of androgen-resistant human LNCaP C4-2B cells at 1 uM incubated for 18 hrs by BrdU incorporation assay; assay type: functional, cell-based
CWR22R [3] = experiment: Inhibition of R1881-induced cell spheroid size of human 22Rv1 cells at 1 uM with medium replacement for every 3 days incubated for 17 days by phase contrast microscopy; assay type: functional, cell-based; details: time 17.0 day
CWR22R [4] = experiment: Inhibition of R1881-induced DNA synthesis in human 22Rv1 cells at 1 to 10 uM incubated for 18 hrs by BrdU incorporation assay; assay type: functional, cell-based; details: dose 1-10 µM
PNT2 [5] = experiment: Inhibition of R1881-induced DNA synthesis in human PNT2 cells at 10 uM incubated for 18 hrs by BrdU incorporation assay; assay type: functional, cell-based
[6] = molecular target: Transient receptor potential cation channel subfamily M member 8 (Rattus norvegicus) (UniProt Q8R455); experiment: Inhibition of rat TRPM8 channel transfected in HEK293 cells assessed as inhibition of menthol-induced calcium currents at 0.01 to 10 uM at -60 mV measured for 90 secs by whole cell patch clamp method; assay type: cell-based; details: dose 0.01-10 µM, time 90.0 sec, DDE = dose-dependent effect
PNT2 [7] = experiment: Inhibition of DNA synthesis in human PNT2 cells at 0.01 to 10 uM incubated for 18 hrs by BrdU incorporation assay; assay type: functional, cell-based; details: dose 0.01-10 µM
LNCaP [8] = experiment: Inhibition of R1881-induced cell spheroid size of human LNCaP cells at 1 uM with medium replacement for every 3 days incubated for 17 days by phase contrast microscopy; assay type: functional, cell-based; details: time 17.0 day
[9] = molecular target: T1, Transient receptor potential cation channel subfamily M member 8; experiment: Antagonist activity at rat TRPM8 channel transfected in HEK293 cells assessed as inhibition of menthol-induced calcium currents at -60 mV measured for 90 secs by whole cell patch clamp method; assay type: cell-based
PC-3 = experiment: Inhibition of DNA synthesis in human PC-3 cells at 0.01 to 10 uM incubated for 18 hrs by BrdU incorporation assay; assay type: functional, cell-based; details: dose 0.01-10 µM
LNCaP [10] = experiment: Inhibition of R1881-induced DNA synthesis in human LNCaP cells at 0.01 to 10 uM incubated for 18 hrs by BrdU incorporation assay; assay type: functional, cell-based; details: dose 0.01-10 µM
PNT2 [11] = experiment: Inhibition of R1881-induced DNA synthesis in human PNT2 cells at 1 uM incubated for 18 hrs by BrdU incorporation assay; assay type: functional, cell-based
LNCaP C4-2B [12] = experiment: Inhibition of androgen-resistant human LNCaP C4-2B cells at 0.1 uM incubated for 18 hrs by BrdU incorporation assay; assay type: functional, cell-based

T1 sequence (Q8R455 whole entry): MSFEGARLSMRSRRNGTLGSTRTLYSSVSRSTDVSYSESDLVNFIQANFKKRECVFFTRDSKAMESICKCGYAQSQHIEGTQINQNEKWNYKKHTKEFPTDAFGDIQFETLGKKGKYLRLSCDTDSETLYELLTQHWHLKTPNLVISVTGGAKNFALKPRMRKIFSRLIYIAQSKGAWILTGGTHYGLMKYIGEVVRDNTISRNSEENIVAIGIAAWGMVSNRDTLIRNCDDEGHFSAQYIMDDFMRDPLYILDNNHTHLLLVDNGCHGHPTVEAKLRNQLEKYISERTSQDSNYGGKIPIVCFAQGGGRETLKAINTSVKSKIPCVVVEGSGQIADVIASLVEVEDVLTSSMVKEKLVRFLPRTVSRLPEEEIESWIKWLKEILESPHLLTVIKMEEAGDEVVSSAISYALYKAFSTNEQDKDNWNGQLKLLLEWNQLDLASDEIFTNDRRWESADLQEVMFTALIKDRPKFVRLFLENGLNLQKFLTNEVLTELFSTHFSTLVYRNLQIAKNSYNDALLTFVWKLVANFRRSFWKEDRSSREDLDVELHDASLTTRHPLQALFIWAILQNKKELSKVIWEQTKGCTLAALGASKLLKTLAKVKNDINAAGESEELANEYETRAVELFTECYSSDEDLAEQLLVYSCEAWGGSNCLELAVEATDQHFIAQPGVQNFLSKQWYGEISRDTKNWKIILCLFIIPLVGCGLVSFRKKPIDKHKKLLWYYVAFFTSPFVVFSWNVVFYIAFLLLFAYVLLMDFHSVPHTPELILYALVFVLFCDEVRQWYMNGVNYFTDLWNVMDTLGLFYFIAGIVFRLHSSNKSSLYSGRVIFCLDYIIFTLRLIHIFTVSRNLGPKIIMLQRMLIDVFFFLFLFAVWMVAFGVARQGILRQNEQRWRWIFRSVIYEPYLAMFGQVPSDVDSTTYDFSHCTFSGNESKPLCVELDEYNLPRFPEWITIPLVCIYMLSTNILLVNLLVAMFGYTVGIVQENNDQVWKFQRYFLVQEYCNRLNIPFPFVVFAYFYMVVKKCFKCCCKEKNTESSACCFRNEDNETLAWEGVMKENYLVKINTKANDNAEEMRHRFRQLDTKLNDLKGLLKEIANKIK
Transient receptor potential cation channel subfamily M member 8 (Rattus norvegicus), sequence (Q8R455 whole entry, looked up): as the sequence (Q8R455 whole entry) above

Q: How did the pIC50 [1] turn out when `O=C1[C@H]2Cc3cc(O)c(O)cc3[C@H](c3ccc(F)cc3)N2C(=O)N1c1cccc(C(F)(F)F)c1` was run?
A: 5.68

Q: For `COC(=O)[C@H](Cc1ccc(O)c(O)c1)N(Cc1ccccc1)Cc1ccccc1`, which inhibition (LNCaP C4-2B [2]) is on record?
A: Active

Q: And the inhibition (CWR22R [3])?
A: Active

Q: And the inhibition (CWR22R [4])?
A: Active

Q: What about the pIC50 [1] of the same compound?
A: 6.31

Q: And the inhibition (PNT2 [5])?
A: Active

Q: And the inhibition [6]?
A: Dde

Q: What about the inhibition (PNT2 [7]) of the same compound?
A: Active

Q: What about the inhibition (LNCaP [8]) of the same compound?
A: Active

Q: And the pIC50 [9]?
A: 7.00

Q: What about the inhibition (PC-3) of the same compound?
A: Active

Q: `O=C1[C@H]2Cc3cc(O)c(O)cc3[C@H](c3ccc(F)cc3)N2C(=O)N1Cc1ccc(F)cc1` was tested. Which pIC50 [1] did it give?
A: 5.66

Q: `COC(=O)[C@H](Cc1ccc(N)cc1)N(Cc1ccccc1)Cc1ccccc1` was tested. Which inhibition (LNCaP C4-2B [2]) did it give?
A: Active

Q: And the inhibition (LNCaP [10])?
A: Active

Q: And the inhibition (CWR22R [3])?
A: Active

Q: And the inhibition (CWR22R [4])?
A: Active

Q: And the pIC50 [1]?
A: 6.68

Q: And the inhibition (PNT2 [5])?
A: Active

Q: And the inhibition [6]?
A: Dde

Q: What about the inhibition (PNT2 [11]) of the same compound?
A: Active

Q: What about the inhibition (PNT2 [7]) of the same compound?
A: Active

Q: What about the inhibition (LNCaP [8]) of the same compound?
A: Active

Q: What about the pIC50 [9] of the same compound?
A: 6.96

Q: What about the inhibition (PC-3) of the same compound?
A: Active

Q: How did the pIC50 [1] turn out when `COC(=O)[C@H](Cc1ccc(Cl)cc1)N(Cc1ccccc1)Cc1ccccc1` was run?
A: 6.55

Q: With `O=C(NCc1ccc(F)cc1)[C@@H]1Cc2cc(O)c(O)cc2[C@H](c2ccc(F)cc2)N1` as the compound, how does the pIC50 [1] read?
A: 4.76

Q: `O=C(NCc1ccc(F)cc1)[C@@H]1Cc2cc(O)c(O)cc2[C@@H](c2ccc(F)cc2)N1` was tested. Which pIC50 [1] did it give?
A: 6.07

Q: With `COC(=O)[C@H](Cc1ccc(O)cc1)N(Cc1ccccc1)Cc1ccccc1` as the compound, how does the pIC50 [1] read?
A: 6.60

Q: How did the pIC50 [1] turn out when `O=C1[C@@H]2Cc3cc(O)c(O)cc3[C@@H](c3ccc(F)cc3)N2C(=O)N1c1cccc(C(F)(F)F)c1` was run?
A: 5.92

Q: With `COC(=O)[C@H](Cc1ccc(C)cc1)N(Cc1ccccc1)Cc1ccccc1` as the compound, how does the pIC50 [1] read?
A: 6.54

Q: How did the pIC50 [1] turn out when `O=C1[C@@H]2Cc3cc(O)c(O)cc3[C@@H](c3ccc(F)cc3)N2C(=O)N1Cc1ccc(F)cc1` was run?
A: 5.77

Q: Which results are given for `COC(=O)[C@H](Cc1ccc([N+](=O)[O-])cc1)N(Cc1ccccc1)Cc1ccccc1`?
A: inhibition (LNCaP C4-2B [2]): Active; inhibition (LNCaP [10]): Active; inhibition (CWR22R [3]): Active; inhibition (LNCaP C4-2B [12]): Active; inhibition (CWR22R [4]): Active; pIC50 [1]: 6.96; inhibition (PNT2 [5]): Active; inhibition [6]: Dde; inhibition (PNT2 [7]): Active; inhibition (LNCaP [8]): Active; pIC50 [9]: 7.22; inhibition (PC-3): Active

Q: With `COC(=O)[C@H](Cc1ccccc1)N(Cc1ccccc1)Cc1ccccc1` as the compound, how does the pIC50 [1] read?
A: 6.49
